In patent US9145415B2, “Nitrogen-containing heterocyclic compound or salt thereof” (FUJIFILM Corporation, priority 2012, dated 2015):
Like-named read-outs stand apart in the source and are kept apart here.

Experiments:
[1] = target: T1, human FLT3 protein (FLT3 (WT)) (Homo sapiens, UniProt P36888); test: FLT3 inhibition test (FLT3 enzyme inhibition, time-resolved fluorescence of substrate peptide phosphorylation); assay type: biochemical
T1 construct: human FLT3 protein (intracellular region, 564 to 993 aa); GST; purchased Carna Biosciences; host or cells: baculovirus expression system
T1 sequence (P36888 564-993): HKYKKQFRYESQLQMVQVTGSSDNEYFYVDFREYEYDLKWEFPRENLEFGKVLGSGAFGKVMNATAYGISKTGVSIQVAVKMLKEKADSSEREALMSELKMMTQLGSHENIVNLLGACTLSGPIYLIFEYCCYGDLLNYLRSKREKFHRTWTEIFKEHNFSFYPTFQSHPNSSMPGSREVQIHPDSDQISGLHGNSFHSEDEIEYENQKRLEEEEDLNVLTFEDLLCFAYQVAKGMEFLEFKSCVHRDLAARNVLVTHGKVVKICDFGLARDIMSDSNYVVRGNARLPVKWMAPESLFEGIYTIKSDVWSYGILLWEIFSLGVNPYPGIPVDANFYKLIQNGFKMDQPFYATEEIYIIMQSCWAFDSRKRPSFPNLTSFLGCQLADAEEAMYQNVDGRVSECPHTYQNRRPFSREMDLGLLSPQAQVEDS
Method: The FLT3 inhibition test was performed for the compounds of the present invention by the method described below.
A reaction mixture in a volume of 9 μL containing the FLT3 protein and a test compound of a predetermined concentration (1.2 μg of FLT3, 100 mM HEPES, 10 mM MgCl2, 25 mM NaCl, 0.01% BSA, 1 mM DTT, pH 7.5) was left standing at 25° C. for 15 minutes. […] (Toray Industries), and 3 μL (final concentration 50 μM) of ATP (Sigma-Aldrich) were added to the reaction mixture, and the mixture was shaken for 2 minutes, and then further left standing at 25° C. for 30 minutes to allow the enzymatic reaction.

Molm-13 cells = test: Leukemia cell proliferation inhibition test (ATPlite), Molm-13; assay type: cell-based; details: read-out: MOLM13 cell proliferation inhibition effect
Method: (§1) A leukemia cell proliferation inhibition test was performed for the compounds of the present invention by using the leukemia cell strains MV4-11 (ATCC Number, CRL-9591) and Molm-13 (DSMZ Number, ACC554).
(§2) The leukemia cell proliferation inhibition test was performed by the method described below.
(§3) For the purpose of measuring proliferation inhibition attained with a compound, the total cell count was quantified on the basis of the total cellular ATP concentration using the ATPlite (PerkinElmer) reagent utilizing firefly luciferase. The Molm-13 or MV4-11 cells were added to the RPMI medium containing penicillin and streptomycin (penn/strep) and 10% FBS at a density of 2×10^5 cells/ml, and 50 μL (10,000 cells) of the cell suspension was inoculated to each well of a 96-well plate (Corning).
(§4) A serially diluted solution of a compound or 0.1% DMSO (solvent control) in a volume of 50 μL was added to the cells, and then the cells were cultured for 72 hours under the standard cell proliferation conditions (37° C., 5% CO2) to allow proliferation of the cells. In order to measure the proliferation of the total cells, equal volume of the ATPlite reaction mixture was added to each well in accordance with the instructions attached to ATPlite, and then luminescence count of the well was measured (relative light unit, RLU).
(§5) The RLU signal observed with the DMSO solvent control after 72 hours of the culture was defined as a signal indicating 0% inhibition, and the GI50 value for the proliferation inhibition corresponds to a concentration of a compound that provides 50% inhibition based on the proliferation of the total cells contained in the DMSO solvent control. Each data point was obtained from samples in duplicate. The GI50 values were calculated by the non-linear regression fitting (Fit Model (205)) according to a sigmoid dose-reaction equation using the XLfit software.

MV4-11 cells = test: Leukemia cell proliferation inhibition test (ATPlite), MV4-11; assay type: cell-based; details: read-out: MV4-11 cell proliferation inhibition effect
Method: as §1, §2, §3, §4, §5

[2] = GST-fused human FLT3 (564 to 993 aa), ATP 50 μM, read-out: FLT3 (WT) enzyme inhibition activity
[3] = Homo sapiens, MOLM-13, 72 h, Molm-13, 72 hours culture, ATPlite, GI50 per method
[4] = Homo sapiens, MV4-11, 72 h, MV4-11, 72 hours culture, ATPlite, GI50 per method
[5] = FLT3 (WT), read-out: FLT3 (WT) enzyme inhibition activity
[6] = Homo sapiens, MOLM-13, MOLM13 cell
[7] = Homo sapiens, MV4-11, MV4-11 cell

Structure (SMILES)	IC50 [1, 2] [nM]	IC50 (Molm-13 cells; [3]) [nM]	IC50 (MV4-11 cells; [4]) [nM]	other results
CCNc1nc(Nc2ccc3cnn(C)c3c2)ncc1C#CCCCNC(=O)[C@H](C)N(C)C(=O)/C=C/CN(C)C [Compound 10-57]	< 10	< 10	< 10	
CCCNc1nc(Nc2ccc3c(OC)nn(COCC)c3c2)ncc1C#CCCCNC(=O)[C@H](C)N(C)C(=O)/C=C/CN(C)C [Compound 22-50]				IC50 [1, 5]: < 10 nM; IC50 (Molm-13 cells; [6]): < 10 nM; IC50 (MV4-11 cells; [7]): 10 to 100 nM
CN(C)C/C=C/C(=O)N(C)CC(=O)NCCCC#Cc1cnc(Nc2ccc(F)cc2)nc1N1CCOCC1 [Compound 10-17]	< 10	10 to 100	< 10	
CCCNc1nc(Nc2ccc(C#N)cc2)ncc1C#CCCCNC(=O)[C@H](C)N(C)C(=O)/C=C/CN(C)C [Compound 7-5, (S,E)-N-(1-((5-(2-((4-Cyanophenyl)amino)-4-(propylamino)pyrimidin-5-yl)-4-pentyn-1-yl)amino)-1-oxopropan-2-yl)-4-(dimethylamino)-N-methyl-2-butenamide]		< 10	< 10	
CCCNc1nc(Nc2ccc(C(N)=O)cc2)ncc1C(=O)Nc1cccc(NC(=O)C(C)(C)NC(=O)/C=C/CN(C)C)c1 [Compound 3-13]	< 10	10 to 100	10 to 100	
C[C@@H](C(=O)NCCCC#Cc1cnc(Nc2cccc(F)c2)nc1NCCCF)N(C)C(=O)/C=C/CN(C)C [Compound 7-31]	< 10	< 10	< 10	
CCCNc1nc(Nc2ccc3cn(C)nc3c2)ncc1C#CCCCNC(=O)[C@H](C)N(C)C(=O)/C=C/CN(C)C [Compound 21-10]	< 10	10 to 100	10 to 100	
COc1ccc(Nc2ncc(C#CCCCNC(=O)[C@H](C)N(C)C(=O)/C=C/CN(C)C)c(NC3CC3)n2)cc1F [Compound 7-42, (S,E)-N-(1-((5-(4-(Cyclopropylamino)-2-((3-fluoro-4-methoxyphenyl)amino)pyrimidin-5-yl)-4-pentyn-1-yl)amino)-1-oxopropan-2-yl)-4-(dimethylamino)-N-methyl-2-butenamide]	< 10	< 10	< 10	
C[C@@H](C(=O)NCCCC#Cc1cnc(Nc2cccc(F)c2)nc1NCCC#N)N(C)C(=O)/C=C/CN(C)C [Compound 10-8]	< 10	10 to 100	< 10	
C[C@@H](C(=O)N[C@H]1C[C@@H](C#Cc2cnc(Nc3ccc(C#N)cc3)nc2NCCCF)C1)N(C)C(=O)/C=C/CN(C)C [Compound 15-14, (E)-N—((S)-1-(((1S,3R)-3-((2-((4-Cyanophenyl)amino)-4-((3-fluoropropyl)amino)pyrimidin-5-yl)ethynyl)cyclobutyl)amino)-1-oxopropan-2-yl)-4-(dimethylamino)-N-methyl-2-butenamide]	< 10	< 10	< 10	
CNc1nc(Nc2ccc(F)cc2)ncc1C#CCCCNC(=O)[C@@H]1C[C@H](F)CN1C(=O)/C=C/CN(C)C [Compound 7-80, (2S,4S)-1-((E)-4-(Dimethylamino)-2-butenoyl)-4-fluoro-N-(5-(2-((4-fluorophenyl)amino)-4-(methylamino)pyrimidin-5-yl)-4-pentyn-1-yl)pyrrolidine-2-carboxamide]	< 10	< 10	< 10	
CNc1nc(Nc2ccc(F)cc2)ncc1C#CCCCNC(=O)CN(C)C(=O)/C=C/CN(C)C [Compound 7-89]	< 10	< 10	< 10	
CCCOc1nc(Nc2ccc(C#N)cc2)ncc1C#C[C@@H]1CCC[C@H](NC(=O)[C@H](C)N(C)C(=O)/C=C/CN(C)C)C1 [Compound 21-13]	< 10	< 10	< 10	
CCCNc1nc(Nc2cccc(F)c2)ncc1/C=C/c1cccc(NC(=O)[C@H](C)N(C)C(=O)/C=C/CN(C)C)c1 [Compound 7-27]	< 10	< 10	10 to 100	
CCCNc1nc(Nc2cccc(F)c2)ncc1C#C[C@H]1C[C@@H](NC(=O)[C@H](C)N(C)C(=O)/C=C/CN(C)C)C1 [Compound 13-8, (E)-4-(Dimethylamino)-N—((S)-1-(((1S,3R)-3-((2-((3-fluorophenyl)amino)-4-(propylamino)pyrimidin-5-yl)ethynyl)cyclobutyl)amino)-1-oxopropan-2-yl)-N-methyl-2-butenamide]	< 10	< 10	< 10	
CCCNc1nc(Nc2ccc(C#N)cc2)ncc1/C=C\CNC(=O)CCNC(=O)/C=C/CN(C)C [Compound 7-95]	10 to 100	> 1000	> 1000	
CCCNc1nc(Nc2cccc(-n3nccn3)c2)ncc1C#CCCCNC(=O)[C@H](C)N(C)C(=O)/C=C/CN(C)C [Compound 22-19]				IC50 [1, 5]: < 10 nM; IC50 (Molm-13 cells; [6]): < 10 nM; IC50 (MV4-11 cells; [7]): < 10 nM
CCCNc1nc(Nc2ccc(C(N)=O)cc2)ncc1C(=O)Nc1cccc(NC(=O)[C@H](C)N(C)C(=O)/C=C/CNCCF)c1 [Compound 4-10]		< 10	< 10	IC50 ([1]; FLT3 (WT) enzyme inhibition activity, GST-fused human FLT3 (564 to 993 aa), ATP 50 μM): < 10 nM
CCCNc1nc(Nc2ccc(C(N)=O)cc2)ncc1C(=O)N[C@@H]1CCC[C@H](Nc2ccccc2NC(=O)/C=C/CN(C)C)C1 [Compound 3-28]	< 10			IC50 (Molm-13 cells; Molm-13, 72 hours culture, ATPlite, GI50 per method): 100 to 1000 nM; IC50 (MV4-11 cells; MV4-11, 72 hours culture, ATPlite, GI50 per method): 100 to 1000 nM
CCCNc1nc(Nc2cc(C)no2)ncc1C#CCCCNC(=O)[C@@H]1CCCN1C(=O)/C=C/CN(C)C [Compound 7-79]	< 10	< 10	< 10	
C[C@@H](C(=O)NCCCC#Cc1cnc(Nc2cccc(F)c2)nc1OC1CCC1)N(C)C(=O)/C=C/CN(C)C [Compound 7-6]	< 10	10 to 100	10 to 100	
CCCNc1nc(Nc2cccc(OC(F)(F)F)c2)ncc1C#CCCCNC(=O)[C@H](C)N(C)C(=O)/C=C/CN(C)C [Compound 11-10]	< 10	10 to 100	< 10	
CC[C@@H](C(=O)NCCCC#Cc1cnc(Nc2ccc(F)nc2)nc1NCC(F)(F)F)N(C)C(=O)/C=C/CN(C)C [Compound 10-35]	< 10	10 to 100	< 10	
CCCNc1nc(Nc2ccc(C#N)cc2)ncc1C#CCCC(=O)NCCN(C)C(=O)/C=C/CN(C)C [Compound 8-22]	< 10	10 to 100	10 to 100	
CCNc1nc(Nc2cccc(F)c2)ncc1C#C[C@@H]1CCC[C@H](NC(=O)[C@H](C)N(C)C(=O)/C=C/CN(C)C)C1 [Compound 21-27]	< 10	< 10	< 10	
CCCNc1nc(Nc2ccc(C#N)cc2)ncc1C#CCCCNC(=O)[C@@H](C)N(C)C(=O)/C=C/CN(C)C [Compound 7-32]		< 10	< 10	
CCCNc1nc(Nc2ccc(C(N)=O)cc2)ncc1C(=O)NCCCNC1CCCC[C@@H]1NC(=O)/C=C/CN(C)C (stereo partly shown) [Compound 3-25]		100 to 1000	10 to 100	
CCCNc1nc(Nc2ccc(C(N)=O)cc2)ncc1C(=O)NCCCN[C@@H]1CCCC[C@@H]1NC(=O)/C=C/CN(C)C [Compound 3-25]	< 10			
